Data as given in patent US8163793B2, “Proline derivatives” (Hoffman-La Roche Inc., priority 2009, dated 2012).
Counter-ions that a name gives are not always drawn.

Key:
Cat L = Cat L (UniProt P07711); experiment: Cathepsin enzyme inhibition assay (fluorogenic peptide substrate Z-Val-Val-Arg-AMC), Cathepsin L; assay type: biochemical, human and mouse; settings: enzyme 1 nM, substrate 20 μM, pH 6.5; read-out: CatL IC50
Outline: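 Fluorogenic cleavage of Z-Val-Val-Arg-AMC (20 μM) by 1 nM Cat L was monitored at ex 360/em 465 nm for 20 min, the linear phase. The buffer was 100 mM potassium phosphate pH 6.5 with 5 mM EDTA and DTT. IC50 values were derived by standard methods, in μM.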

Cathepsin S = Cathepsin S (UniProt P25774); experiment: Cathepsin enzyme inhibition assay (fluorogenic peptide substrate Z-Val-Val-Arg-AMC), Cathepsin S; assay type: biochemical, human and mouse; settings: enzyme 1 nM, substrate 20 μM, pH 6.5; read-out: CatS IC50
Outline: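 Compounds were combined with 1 nM human or mouse enzyme, and substrate then started the reaction. The buffer was potassium phosphate (100 mM, pH 6.5) containing EDTA-Na 5 mM, Triton X-100 0.001% and […] 5 mM.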

| Compound | IC50 (Cat L) [nM] | IC50 (Cathepsin S) [nM] |
| --- | --- | --- |
| CC(C)(C)OC(=O)N1C[C@H](S(=O)(=O)c2ccccc2OC(F)(F)F)C[C@H]1C(=O)NC1(C#N)CC1 [Example 2, (2S,4R)-2-(1-Cyano-cyclopropylcarbamoyl)-4-(2-trifluoromethoxy-benzenesulfonyl)-pyrrolidine-1-carboxylic acid tert-butyl ester] | ≥ 25000 | 43.5 |
| N#CC1(NC(=O)[C@H]2CC(S(=O)(=O)c3ccc(OCC(F)(F)F)cc3Cl)CN2)CC1 (stereo partly drawn) [Example 173, (R)-4-[2-Chloro-4-(2,2,2-trifluoro-ethoxy)-benzenesulfonyl]-pyrrolidine-2-carboxylic acid (1-cyano-cyclopropyl)-amide] | 27300 | 5.9 |
| N#CC1(NC(=O)[C@@H]2C[C@@H](S(=O)(=O)c3ccc(-n4ccnc4-c4ccccc4)cc3C(F)(F)F)CN2)CC1 [Example 25, (2S,4R)-4-[4-(2-Phenyl-imidazol-1-yl)-2-trifluoromethyl-benzenesulfonyl]-pyrrolidine-2-carboxylic acid (1-cyano-cyclopropyl)-amide hydrochloride] | ≥ 25000 | 2.3 |
| CC(C)C(=O)N1C[C@H](S(=O)(=O)c2ccc(OCC(F)(F)F)cc2Cl)C[C@H]1C(=O)NC1(C#N)CC1 [Example 179, (2S,4R)-4-[2-Chloro-4-(2,2,2-trifluoro-ethoxy)-benzenesulfonyl]-1-isobutyryl-pyrrolidine-2-carboxylic acid (1-cyano-cyclopropyl)-amide] | 17600 | 0.42 |
| CC(C)N1CCN(c2ccc(S(=O)(=O)[C@@H]3C[C@@H](C(=O)NC4(C#N)CC4)N(C(=O)C4(C(F)(F)F)CC4)C3)c(Cl)c2)CC1 [Example 293, (2S,4R)-4-[2-Chloro-4-(4-isopropyl-piperazin-1-yl)-benzenesulfonyl]-1-(1-trifluoromethyl-cyclopropanecarbonyl)-pyrrolidine-2-carboxylic acid (1-cyano-cyclopropyl)-amide] | 1400 | 0.18 |
| Cc1cc(N2C[C@H](S(=O)(=O)c3ccc(-c4ccncn4)cc3C(F)(F)F)C[C@H]2C(=O)NC2(C#N)CC2)n(C2CCC2)n1 [Example 419, (2S,4R)-1-(2-Cyclobutyl-5-methyl-2H-pyrazol-3-yl)-4-(4-pyrimidin-4-yl-2-trifluoromethyl-benzenesulfonyl)-pyrrolidine-2-carboxylic acid (1-cyano-cyclopropyl)-amide] | 16900 | 0.415 |
| N#CC1(NC(=O)[C@@H]2C[C@@H](S(=O)(=O)c3ccccc3C(F)(F)F)CN2c2cc(C3CCOCC3)nn2C2CCC2)CC1 [Example 397, (2S,4R)-1-[2-Cyclobutyl-5-(tetrahydro-pyran-4-yl)-2H-pyrazol-3-yl]-4-(2-trifluoromethyl-benzenesulfonyl)-pyrrolidine-2-carboxylic acid (1-cyano-cyclopropyl)-amide] | 7200 | 0.435 |
| N#CC1(NC(=O)[C@@H]2C[C@@H](S(=O)(=O)c3ccccc3Cl)CN2S(=O)(=O)c2ccc(-c3ccccc3)cc2)CC1 [Example 316, (2S,4R)-1-(Biphenyl-4-sulfonyl)-4-(2-chloro-benzenesulfonyl)-pyrrolidine-2-carboxylic acid (1-cyano-cyclopropyl)-amide] | 5240 | 0.3 |
| CC(=O)N1C[C@H](S(=O)(=O)c2ccc(OC(C)C(F)(F)F)cc2Cl)C[C@H]1C(=O)NC1(C#N)CC1 (stereo partly drawn) [Example 132, (2S,4R)-1-Acetyl-4-[2-chloro-4-(2,2,2-trifluoro-1-methyl-ethoxy)-benzenesulfonyl]-pyrrolidine-2-carboxylic acid (1-cyano-cyclopropyl)-amide] | 35000 | 3.8 |
| N#CC1(NC(=O)[C@@H]2C[C@@H](S(=O)(=O)c3ccc(OCC(F)(F)F)cc3C(F)(F)F)CN2C(=O)C2(C(F)(F)F)CC2)CC1 [Example 237, (2S,4R)-4-[4-(2,2,2-Trifluoro-ethoxy)-2-trifluoromethyl-benzenesulfonyl]-1-(1-trifluoromethyl-cyclopropanecarbonyl)-pyrrolidine-2-carboxylic acid (1-cyano-cyclopropyl)-amide] | ≥ 25000 | 0.168 |
| CC(C)(C)c1ccc(C2NC(C(=O)NC3(C#N)CC3)CC2S(=O)(=O)c2ccccc2)cc1 (stereo not shown) [Example 447, 4-Benzenesulfonyl-5-(4-tert-butyl-phenyl)-pyrrolidine-2-carboxylic acid (1-cyano-cyclopropyl)-amide] | ≥ 25000 | 6130 |
| CN1CCN(c2ccc(S(=O)(=O)[C@@H]3C[C@@H](C(=O)NC4(C#N)CC4)N(C(=O)C4(c5ccc(Cl)nc5)CC4)C3)c(Cl)c2)CC1 [Example 369, (2S,4R)-4-[2-Chloro-4-(4-methyl-piperazin-1-yl)-benzenesulfonyl]-1-[1-(6-chloro-pyridin-3-yl)-cyclopropanecarbonyl]-pyrrolidine-2-carboxylic acid (1-cyano-cyclopropyl)-amide; Compound with Formic Acid] | 26.3 | 0.07 |
| N#CC1(NC(=O)[C@@H]2C[C@@H](S(=O)(=O)c3ccc(N4CCC(F)(F)CC4)cc3Cl)CN2C(=O)C2(C(F)(F)F)CC2)CC1 [Example 157, (2S,4R)-4-[2-Chloro-4-(4,4-difluoro-piperidin-1-yl)-benzenesulfonyl]-1-(1-trifluoromethyl-cyclopropanecarbonyl)-pyrrolidine-2-carboxylic acid (1-cyano-cyclopropyl)-amide] | 4410 | 0.4 |

Now from value to molecule:

| IC50 (Cat L) [nM] | IC50 (Cathepsin S) [nM] | Compound |
| --- | --- | --- |
| 6.5 | 0.505 | N#CC1(NC(=O)[C@@H]2C[C@@H](S(=O)(=O)c3ccccc3Cl)CN2C(=O)C2(c3ccc(I)cc3)CC2)CC1 [Example 459, (2S,4R)-4-(2-Chloro-benzenesulfonyl)-1-[1-(4-iodo-phenyl)-cyclopropanecarbonyl]-pyrrolidine-2-carboxylic acid (1-cyano-cyclopropyl)-amide] |
| 805 | 0.445 | Cc1ccc(C2(C(=O)N3C[C@H](S(=O)(=O)c4ccc(OCC(F)(F)F)cc4Cl)C[C@H]3C(=O)NC3(C#N)CC3)CC2)cc1 [Example 304, (2S,4R)-4-[2-Chloro-4-(2,2,2-trifluoro-ethoxy)-benzenesulfonyl]-1-(1-p-tolyl-cyclopropanecarbonyl)-pyrrolidine-2-carboxylic acid (1-cyano-cyclopropyl)-amide] |
| 1100 | 0.31 | Cc1csc(C2(C(=O)N3C[C@H](S(=O)(=O)c4ccccc4Cl)C[C@H]3C(=O)NC3(C#N)CC3)CC2)n1 [Example 413, (2S,4R)-4-(2-Chloro-benzenesulfonyl)-1-[1-(4-methyl-thiazol-2-yl)-cyclopropanecarbonyl]-pyrrolidine-2-carboxylic acid (1-cyano-cyclopropyl)-amide] |
| 1310 | 0.02 | CC(C)(C(=O)N1C[C@H](S(=O)(=O)c2ccc(OCC(F)(F)F)cc2Cl)C[C@H]1C(=O)NC1(C#N)CC1)c1ccc(Cl)cc1 [Example 279, (2S,4R)-1-[2-(4-Chloro-phenyl)-2-methyl-propionyl]-4-[2-chloro-4-(2,2,2-trifluoro-ethoxy)-benzenesulfonyl]-pyrrolidine-2-carboxylic acid (1-cyano-cyclopropyl)-amide] |
| 95 | 0.51 | N#CC1(NC(=O)[C@@H]2C[C@@H](S(=O)(=O)c3ccccc3Cl)CN2C(=O)C2(c3ccc(C(F)(F)F)cc3)CC2)CC1 [Example 427, (2S,4R)-4-(2-chlorophenylsulfonyl)-N-(1-cyanocyclopropyl)-1-(1-(4-(trifluoromethyl)phenyl)cyclopropanecarbonyl)pyrrolidine-2-carboxamide] |
| 36 | 0.16 | N#CC1(NC(=O)[C@@H]2C[C@@H](S(=O)(=O)c3ccc(OCC(F)(F)F)cc3Cl)CN2C(=O)C2(c3ccc(Cl)cc3)CC2)CC1 [Example 178, (2S,4R)-1-[1-(4-Chloro-phenyl)-cyclopropanecarbonyl]-4-[2-chloro-4-(2,2,2-trifluoro-ethoxy)-benzenesulfonyl]-pyrrolidine-2-carboxylic acid (1-cyano-cyclopropyl)-amide] |
| 530 | 34000 | N#CC1(NC(=O)[C@@H]2C[C@@H](S(=O)(=O)c3ccccc3)CN2C(=O)C2(c3ccc(Cl)cc3)CC2)CC1 [Example 457, (2S,4R)-1-(1-(4-chlorophenyl)cyclopropanecarbonyl)-N-(1-cyanocyclopropyl)-4-(phenylsulfonyl)pyrrolidine-2-carboxamide] |
| ≥ 25000 | 6 | COc1ccc(N2C[C@H](S(=O)(=O)c3ccccc3C(F)(F)F)C[C@H]2C(=O)NC2(C#N)CC2)cc1 [Example 160, (2S,4R)-1-(4-Methoxy-phenyl)-4-(2-trifluoromethyl-benzenesulfonyl)-pyrrolidine-2-carboxylic Acid (1-cyano-cyclopropyl)-amide] |
| ≥ 25000 | 110 | N#CC1(NC(=O)[C@@H]2C[C@@H](S(=O)(=O)c3ccccc3Cl)CN2CC(F)(F)F)CC1 [Example 89, (2S,4R)-4-(2-Chloro-benzenesulfonyl)-1-(2,2,2-trifluoro-ethyl)-pyrrolidine-2-carboxylic acid (1-cyano-cyclopropyl)-amide] |
| 220 | 0.03 | N#CC1(NC(=O)[C@@H]2C[C@@H](S(=O)(=O)c3ccc(-n4cnc5cnccc54)cc3Cl)CN2C(=O)C2(c3ccc(Cl)cc3)CC2)CC1 [Example 349, (2S,4R)-4-(2-Chloro-4-imidazo[4,5-c]pyridin-1-yl-benzenesulfonyl)-1-[1-(4-chloro-phenyl)-cyclopropanecarbonyl]-pyrrolidine-2-carboxylic acid (1-cyano-cyclopropyl)-amide] |
